Laboratory results published in US20090238881A1, “IONOPHORE ANTIBIOTIC FORMULATIONS” (priority 2000, published 2009).

Tests used:
[1] = EP 0,139,595 Example 1: 250 g mycelium (10% monensin), 1250 cc propylene glycol, room temperature, 2 hours ultrasound; cited from earlier work
[2] = Solubility of monensin in propylene glycol; assay type: physicochemical
Description: There is an indication that 50% of the monensin was found in solution in the propylene glycol.
We have found monopropylene glycol to be a poor solvent of monensin. While we have in NZ 272574/272940 referred to monopropylene glycol as being an antifreeze agent in which the ionophore antibiotic is sparingly soluble, we do appreciate that solubility to the extent referred to in Example 1 of EP 0,139,595 may be achieved when induced with ultrasound or heating.

[3] = cited from earlier work

monensin
monensin found in solution in the propylene glycol [1]: 50%
solubility in monopropylene glycol [2]: poor solvent
solubility in water [3]: only slightly soluble in water
